Measurements: US20090221573A1, “Use of Activators of Soluble Guanylate Cyclase for Promoting Wound Healing” (Bayer HealthCare AG, priority 2005, published 2009)
Where two headings read alike, the source gives them in different places.

System: smooth muscle cells of the human coronary artery
Test: Inhibition of the horizontal migration of smooth muscle cells (wounded monolayer)
Assay type: cell-based
Settings: read-out: Inhibition of the horizontal migration of smooth muscle cells of the human coronary artery, IC50
Protocol: Smooth muscle cells of the human coronary artery are seeded in a 6-well plate (1.5×10^5 cells/well) (Clonetics) and cultured in SmGM2 medium (Clonetics) for 48 h. Before the plates are used, the wells are coated with vitronectin (50 ng/cm^2; Gibco BRL). Half of the confluent cell monolayer is removed with the aid of a cell scraper (wounding). In the cell-free region, the vitronectin coating is at least 50% retained in this case. For the test, unless mentioned otherwise, the culture medium is replaced by MCDB-131/0.2% BSA (Gibco/BRL) medium. The test substances are added in various concentrations, and the migration distance in the cell-free region is followed with the aid of a microscope over 24 h and 48 h. Each measurement point represents the average of four measured regions. PDGF, as potent chemotactic factor for SMC, is used as positive control (1 nM, 10 nM, R&D systems). The RGD tripeptide (Bachem) is employed to inhibit the integrin-induced migration. To determine the antagonistic activity of the test substances, the cells are stimulated in the presence of the substance with 1 nM or 10 nM PDGF, and the migration distances are determined in relation to the PDGF-induced migration distances.

SMILES | IC50 (48 h) [µM] | IC50 (incubation time 48 h) [µM]
O=C(O)CCCCN(CCc1ccccc1OCc1ccc(CCc2ccccc2)cc1)Cc1ccc(C(=O)O)cc1 [Compound I] | 0.005 | 
COC(=O)N(C)c1c(N)nc(-c2nn(Cc3ccccc3F)c3ncccc23)nc1N [IV] |  | 0.01
COC(=O)Nc1c(N)nc(-c2nn(Cc3ccccc3F)c3ncccc23)nc1N [IVa] | 0.03 | 
